30 molecules from patent US20250019387A1 (Frontier Medicines Corporation, priority 0001, published 2025) can be followed below.

The target in the assay is KRAS G12C and cRAF (Ras-binding domain) interaction (Homo sapiens (Human), UniProt P01116, C118S/C51S/C80L/G12C). Briefly: Inhibition of KRAS G12C and cRAF binding (AlphaScreen). In a few lines:
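IC50 values come from 4-parameter nonlinear regression of AlphaScreen signal (680 nm excitation, 570 nm emission). Compound plates sat 19-20 h at room temperature before RBD and donor/acceptor beads were added in Hepes pH 7.4 buffer with 150 mM NaCl, 5 mM MgCl2, 2% DMSO for 60-90 min; biotin-AviTag-GST replaced RBD to flag assay-technology interferers.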
In general terms: Bead proximity is the source of the signal in Alpha formats.

Setting [1] is: GMPPNP-loaded KRAS G12C, 19-20 hours incubation with compound, read-out: IC50 (Inhibition of KRAS G12C and cRAF Binding).
[2] abbreviates: additional exemplary compounds, KRAS G12C and cRAF binding, read-out: RAF1 RBD IC50.

Read-outs that look alike come from different tables or passages of the source. Some results are limits rather than exact numbers.

Chain of KRAS G12C and cRAF (Ras-binding domain) interaction (P01116 other isoform, or with tags, fused parts or gaps G12C/C51S/C80L/C118S): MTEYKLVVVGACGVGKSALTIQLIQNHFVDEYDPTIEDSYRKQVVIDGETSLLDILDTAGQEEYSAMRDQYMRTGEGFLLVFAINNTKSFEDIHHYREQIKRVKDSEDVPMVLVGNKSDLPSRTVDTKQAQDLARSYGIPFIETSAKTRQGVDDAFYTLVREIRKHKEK

The IC50 is the concentration that inhibits the measured activity by half. For the molecule `C#Cc1c(F)ccc2cccc(-c3ncc4c(N(C)[C@@H]5CCN(C(=O)C=C)C5)nc(OC[C@]56CCCN5C[C@H](F)C6)nc4c3F)c12` [Example 305, 1-((R)-3-((7-(8-ethynyl-7-fluoronaphthalen-1-yl)-8-fluoro-2-(((2R,7aR)-2-fluorotetrahydro-1H-pyrrolizin-7a(5H)-yl)methoxy)pyrido[4,3-d]pyrimidin-4-yl)(methyl)amino)pyrrolidin-1-yl)prop-2-en-1-one], the IC50 under setting [1] was in the range of 10 to 100 nM. For `C=CS(=O)(=O)CCN(C)c1nc(OCC23CCCN2CCC3)nc2c1CCN(c1cccc3cccc(Cl)c13)C2` [Example 49, 7-(8-chloronaphthalen-1-yl)-2-((hexahydro-1H-pyrrolizin-7a-yl)methoxy)-N-methyl-N-(2-(vinylsulfonyl)ethyl)-5,6,7,8-tetrahydropyrido[3,4-d]pyrimidin-4-amine], the IC50 under setting [1] is under 10 nM. Turning to `CN(c1nc(OC[C@@]23CCCN2C[C@H](F)C3)nc2c(F)c(-c3cccc4ccc(F)c(Cl)c34)ncc12)[C@@H]1CCN(C(=O)/C=C/CN2CCOCC2)C1` [Example 96, (E)-1-((R)-3-((7-(8-chloro-7-fluoronaphthalen-1-yl)-8-fluoro-2-(((2R,7aS)-2-fluorotetrahydro-1H-pyrrolizin-7a(5H)-yl)methoxy)pyrido[4,3-d]pyrimidin-4-yl)(methyl)amino)pyrrolidin-1-yl)-4-morpholinobut-2-en-1-one], the 50% inhibitory concentration (IC50) under setting [1] is 100 to 500 nM. On the same count and under the same terms, as for `Cc1nc(C)c(F)c(/C=C/C(=O)N2CC[C@@H](N(C)c3nc(OC[C@@]45CCCN4C[C@H](F)C5)nc4c(F)c(-c5cccc6ccc(F)c(F)c56)ncc34)C2)n1` [Example 294, (E)-1-((R)-3-((7-(7,8-difluoronaphthalen-1-yl)-8-fluoro-2-(((2R,7aS)-2-fluorotetrahydro-1H-pyrrolizin-7a(5H)-yl)methoxy)pyrido[4,3-d]pyrimidin-4-yl)(methyl)amino)pyrrolidin-1-yl)-3-(5-fluoro-2,6-dimethylpyrimidin-4-yl)prop-2-en-1-one], the figure is 100 to 500 nM.

In the case of `CC(C)C/C=C/S(=O)(=O)CCN(C)c1nc(OCC23CCCN2CCC3)nc2c1CCN(c1cccc3cccc(Cl)c13)C2`, the IC50 under setting [2] is over 500 nM. For the molecule `C=CC(=O)N1CC[C@@H](Nc2nc(OC[C@@]34CCCN3C[C@H](F)C4)nc3c(F)c(-c4cccc5cccc(Cl)c45)ncc23)C1`, the IC50 under setting [2] was over 500 nM. Take `C=CS(=O)(=O)[C@H]1C[C@H](N(C)c2nc(OC[C@@H]3CCCN3C)nc3c2CCN(c2cccc4cccc(Cl)c24)C3)C1` [Example 48, 7-(8-chloronaphthalen-1-yl)-N-methyl-2-(((S)-1-methylpyrrolidin-2-yl)methoxy)-N-((1r,3S)-3-(vinylsulfonyl)cyclobutyl)-5,6,7,8-tetrahydropyrido[3,4-d]pyrimidin-4-amine]: the half-maximal inhibitory concentration (IC50) under setting [1] was in the range of 100 to 500 nM. Consider `C=CC(=O)N1CC(CNc2nc(OC[C@@]34CCCN3C[C@H](F)C4)nc3c(F)c(-c4cccc5cccc(Cl)c45)ncc23)C1`, for which the half-inhibitory concentration (IC50) under setting [2] is 100 to 500 nM. Consider `COC/C=C/C(=O)N1CC[C@@H](N(C)c2nc(OCC34CCCN3CCC4)nc3c2CCN(c2cccc4cccc(Cl)c24)C3)C1`, for which the concentration for half-maximal inhibition (IC50) under setting [2] lay within 100 to 500 nM. Take `Cc1nccc(/C=C/C(=O)N2CC3(C2)CN(c2nc(OC[C@@]45CCCN4C[C@H](F)C5)nc4c(F)c(-c5cccc6cccc(Cl)c56)ncc24)C3)n1`: the IC50 under setting [2] was over 500 nM. Consider `C=CC(=O)N1CC[C@@H](N(C)c2nc(OC[C@@]34CCCN3C[C@H](F)C4)nc3c(F)c(-c4cccc5cc(Cl)cc(Cl)c45)ncc23)C1` [Example 263, 1-((R)-3-((7-(6,8-dichloronaphthalen-1-yl)-8-fluoro-2-(((2R,7aS)-2-fluorotetrahydro-1H-pyrrolizin-7a(5H)-yl)methoxy)pyrido[4,3-d]pyrimidin-4-yl)(methyl)amino)pyrrolidin-1-yl)prop-2-en-1-one], for which the IC50 under setting [1] was over 500 nM. Regarding `C=CC(=O)N1C[C@@H](N(C)c2nc(OC[C@@H]3CCCN3C)nc3c(F)c(-c4cccc5cccc(Cl)c45)ncc23)C[C@@H]1CC#N`, under setting [2], the IC50 was over 500 nM. `COC(=O)/C=C\C(=O)N1CCC(N(C)c2nc(OC[C@@H]3CCCN3C)nc3c2CCN(c2cccc4cccc(Cl)c24)C3)C1` (stereo partly drawn) [Example 7, methyl (Z)-4-(3-((7-(8-chloronaphthalen-1-yl)-2-(((S)-1-methylpyrrolidin-2-yl)methoxy)-5,6,7,8-tetrahydropyrido[3,4-d]pyrimidin-4-yl)(methyl)amino)pyrrolidin-1-yl)-4-oxobut-2-enoate]: under setting [1], the IC50 was over 500 nM. On to `C=CC(=O)N1CCC[C@@H](N(C)c2nc(OCC34CCCN3CCC4)nc3c2CCN(c2cccc4cccc(Cl)c24)C3)C1`, for which the IC50 under setting [2] was over 500 nM. As to `C/C=C/C(=O)CN(C)c1nc(OC[C@@H]2CCCN2C)nc2c1CCN(c1cccc3ccccc13)C2`, the IC50 under setting [2] is over 500 nM.

Take `CN1CC(=CC(=O)N2CC[C@@H](N(C)c3nc(OC[C@@]45CCCN4C[C@H](F)C5)nc4c(F)c(-c5cccc6ccc(F)c(F)c56)ncc34)C2)C1` [Example 299, 1-((R)-3-((7-(7,8-difluoronaphthalen-1-yl)-8-fluoro-2-(((2R,7aS)-2-fluorotetrahydro-1H-pyrrolizin-7a(5H)-yl)methoxy)pyrido[4,3-d]pyrimidin-4-yl)(methyl)amino)pyrrolidin-1-yl)-2-(1-methylazetidin-3-ylidene)ethan-1-one]: the IC50 under setting [1] is under 10 nM. With `C=CC(=O)N1CC(CN(C)c2nc(OC[C@@]34CCCN3C[C@@H](F)C4)nc3c(F)c(-c4cccc5cccc(Cl)c45)ncc23)C1`, the IC50 under setting [2] is over 500 nM. Same read-out and setting: as for `C=CC(=O)N1C[C@H](Nc2nc(OC[C@@]34CCCN3C[C@H](F)C4)nc3c(F)c(-c4cccc5cccc(Cl)c45)ncc23)[C@@H](C)C1`, the figure is over 500 nM. Consider `CN(c1nc(OC[C@@]23CCCN2C[C@H](F)C3)nc2c(F)c(-c3cccc4cccc(Cl)c34)ncc12)[C@@H]1CCN(C(=O)/C=C/CN2CCCS2(=O)=O)C1`, for which the 50% inhibitory concentration (IC50) under setting [2] was 100 to 500 nM. Consider `CN1CC(C#CC(=O)N2CC[C@@H](N(C)c3nc(OC[C@@]45CCCN4C[C@H](F)C5)nc4c(F)c(-c5cccc6cccc(Cl)c56)ncc34)C2)C1` [Example 67, 1-((R)-3-((7-(8-chloronaphthalen-1-yl)-8-fluoro-2-(((2R,7aS)-2-fluorohexahydro-1H-pyrrolizin-7a-yl)methoxy)pyrido[4,3-d]pyrimidin-4-yl)(methyl)amino)pyrrolidin-1-yl)-3-(1-methylazetidin-3-yl)prop-2-yn-1-one], for which the concentration for half-maximal inhibition (IC50) under setting [1] lay in the range of 10 to 100 nM. On to `C=CC(=O)N1CC[C@H]2[C@@H]1CCN2c1nc(OC[C@@]23CCCN2C[C@H](F)C3)nc2c1CCN(c1cccc3cccc(Cl)c13)C2`, for which the concentration for half-maximal inhibition (IC50) under setting [2] was over 500 nM.

`CN(C)C/C=C/S(=O)(=O)CCN(C)c1nc(OC[C@@H]2CCCN2C)nc2c1CCN(c1cccc3cccc(Cl)c13)C2` [Example 52, (S,E)-7-(8-chloronaphthalen-1-yl)-N-(2-((3-(dimethylamino)prop-1-en-1-yl)sulfonyl)ethyl)-N-methyl-2-((1-methylpyrrolidin-2-yl)methoxy)-5,6,7,8-tetrahydropyrido[3,4-d]pyrimidin-4-amine]: the IC50 under setting [1] is 10 to 100 nM.

On to `CC(C)c1noc(/C=C/C(=O)N2C[C@H]3C[C@@H]2CN3c2nc(OC[C@@]34CCCN3C[C@H](F)C4)nc3c(F)c(-c4cccc5cccc(Cl)c45)ncc23)n1`, for which the IC50 under setting [2] is over 500 nM. In the case of `N#CN1CC[C@H]2[C@@H]1CCN2c1nc(OC[C@@]23CCCN2C[C@H](F)C3)nc2c(F)c(-c3cccc4cccc(Cl)c34)ncc12`, under setting [2], the half-maximal inhibitory concentration (IC50) was over 500 nM.

For `Cc1nsc(/C=C/C(=O)N2CC(CN(C)c3nc(OC[C@@]45CCCN4C[C@H](F)C5)nc4c(F)c(-c5cccc6cccc(Cl)c56)ncc34)C2)n1` [Example 74, (E)-1-(3-(((7-(8-chloronaphthalen-1-yl)-8-fluoro-2-(((2R,7aS)-2-fluorotetrahydro-1H-pyrrolizin-7a(5H)-yl)methoxy)pyrido[4,3-d]pyrimidin-4-yl)(methyl)amino)methyl)azetidin-1-yl)-3-(3-methyl-1,2,4-thiadiazol-5-yl)prop-2-en-1-one], the IC50 under setting [1] lay within 100 to 500 nM. Consider `C=CC(=O)N1CC[C@@H](N(C)c2nc(OC[C@@]34CCCN3C[C@H](F)C4)nc3c2CCN(c2cc(O)cc4ccccc24)C3)C1`, for which the IC50 under setting [2] lay within 100 to 500 nM. Regarding `C=CC(=O)N1C[C@H](N(C)c2nc(OC[C@@]34CCCN3C[C@H](F)C4)nc3c(F)c(-c4cccc5cccc(Cl)c45)ncc23)C[C@@H]1CC#N` [Example 87, 2-((2R,4R)-1-acryloyl-4-((7-(8-chloronaphthalen-1-yl)-8-fluoro-2-(((2R,7aS)-2-fluorotetrahydro-1H-pyrrolizin-7a(5H)-yl)methoxy)pyrido[4,3-d]pyrimidin-4-yl)(methyl)amino)pyrrolidin-2-yl)acetonitrile], the IC50 under setting [1] lay within 100 to 500 nM.

Turning to `CN(C)C/C=C/C(=O)N1CCC(N(C)c2nc(OC[C@@H]3CCCN3C)nc3c2CCN(c2cccc4cccc(Cl)c24)C3)C1` (stereo partly drawn), the half-maximal inhibitory concentration (IC50) under setting [2] lay within 100 to 500 nM. For the molecule `Cc1cc(/C=C/C(=O)N2CC(CN(C)c3nc(OC[C@@]45CCCN4C[C@H](F)C5)nc4c(F)c(-c5cccc6ccc(F)c(F)c56)ncc34)C2)nc(C)n1` [Example 274, (E)-1-(3-(((7-(7,8-difluoronaphthalen-1-yl)-8-fluoro-2-(((2R,7aS)-2-fluorotetrahydro-1H-pyrrolizin-7a(5H)-yl)methoxy)pyrido[4,3-d]pyrimidin-4-yl)(methyl)amino)methyl)azetidin-1-yl)-3-(2,6-dimethylpyrimidin-4-yl)prop-2-en-1-one], the concentration for half-maximal inhibition (IC50) under setting [1] was 10 to 100 nM. Take `CN(C)C/C=C/C(=O)N1CC[C@@H](N(C)c2nc(OCC34CCCN3CCC4)nc3c(F)c(-c4cccc5ccc(F)c(Cl)c45)ncc23)C1`: under setting [2], the 50% inhibitory concentration (IC50) fell in the range of 10 to 100 nM.
